From patent publication US6737383B1, “Herbicidal oxadiazolidines” (priority 1999, dated 2004)

Tests used:
surinam grass [1] = experiment: Test D surinam grass; format: in vivo, Brachiaria decumbens; settings: Postemergence, 0 to 100 scale
goosegrass = experiment: Test D goosegrass; format: in vivo, Eleusine indica; settings: Postemergence, 0 to 100 scale
itchgrass = experiment: Test D itchgrass; format: in vivo, Rottboellia exaltata; settings: Postemergence, 0 to 100 scale
wild buckwheat = experiment: Test E wild buckwheat; format: in vivo, Polygonum convolvulus; settings: Postemergence
Procedure: (§1) Compounds evaluated in this test were formulated in a non-phytotoxic solvent mixture which included a surfactant and applied to plants that were in the 1- to 4-leaf stage (postemergence application). A mixture of sandy loam soil and greenhouse potting mix in a 60:40 ratio was used for the postemergence test.
(§2) Plantings of these crops and weed species were adjusted to produce plants of appropriate size for the postemergence test. All plant species were grown using normal greenhouse practices. Crop and weed species include annual bluegrass (Poa annua), blackgrass (Alopecurus myosuroides), black nightshade (Solanum nigra), chickweed (Stellaria media), common poppy (Papaver rhoeas), deadnettle (Lamium amplexicaule), downy brome (Bromus tectorum), field violet (Viola arvensis), galium (Galium aparine), green foxtail (Setaria viridis), Italian ryegrass (Lolium multiflorum), jointed goatgrass (Aegilops cylindrica), kochia (Kochia scoparia), lambsquarters (Chenopodium album), littleseed canarygrass (Phalaris minor), rape (Brassica napus), redroot pigweed (Amaranthus retroflexus), Russian thistle (Salsola kali), scentless chamomile (Matricaria inodora), spring barley (Hordeum vulgare), sugar beet (Beta vulgaris), sunflower (Helianthus annuus), ivyleaf speedwell (Veronica hederaefolia), spring wheat (Triticum aestivum), winter wheat (Triticum aestivum), wild buckwheat (Polygonum convolvulus), wild mustard (Sinapis arvensis), wild oat (Avena fatua), windgrass (Apera spica-venti) and winter barley (Hordeum vulgare).
(§3) Treated plants and untreated controls were maintained in a greenhouse for approximately 21 to 28 days, after which all treated plants were compared to untreated controls and visually evaluated. […] A dash response (-) means no test result.

redroot pigweed [2] = experiment: Test E redroot pigweed; format: in vivo, Amaranthus retroflexus; settings: Postemergence
Procedure: as §1, §2, §3

downy brome = experiment: Test E downy brome; format: in vivo, Bromus tectorum; settings: Postemergence; for Plant response rating, Downy brome: 0 to 100 scale
In short: (§4)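 Greenhouse test: compounds in non-phytotoxic solvent with surfactant; for postemergence, sprayed on plants at 1- to 4-leaf stage grown in 60:40 sandy loam/potting mix. Injury rated visually against untreated controls after about 21 to 28 days.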

chickweed = experiment: Test E chickweed; format: in vivo, Stellaria media; settings: Preemergence
annual bluegrass = experiment: Test E annual bluegrass; format: in vivo, Poa annua; settings: Preemergence
blackgrass = experiment: Test E blackgrass; format: in vivo, Alopecurus myosuroides; settings: Postemergence
In short: as §4

lambsquarters = experiment: Test E lambsquarters; format: in vivo, Chenopodium album; settings: Postemergence
In short: as §4

littleseed canarygrass = experiment: Test E littleseed canarygrass; format: in vivo, Phalaris minor; settings: Postemergence
Procedure: as §1, §2, §3

windgrass = experiment: Test E windgrass; format: in vivo, Apera spica-venti; settings: Postemergence, Rate 62 g/ha; 0 to 100 scale
Procedure: as §1
Plantings of these crops and weed species were adjusted to produce plants of appropriate size for the postemergence test. All plant species were grown using normal greenhouse practices. […]
Treated plants and untreated controls were maintained in a greenhouse for approximately 21 to 28 days, after which all treated plants were compared to untreated controls and visually evaluated. […]

jointed goatgrass = experiment: Test E jointed goatgrass; format: in vivo, Aegilops cylindrica; settings: Postemergence
Procedure: as §1, §2, §3

redroot pigweed [3] = experiment: Test C postemergence redroot pigweed; format: in vivo, Amaranthus retroflexus; settings: 0 to 100 scale, 0 no effect, 100 complete control
Procedure: (§5) Compounds evaluated in this test were formulated in a non-phytotoxic solvent mixture which included a surfactant and applied to plants that were grown for various periods of time before treatment (postemergence application). A mixture of sandy loam soil and greenhouse potting mix in a 60:40 ratio was used for the postemergence test.
(§6) Plantings of these crops and weed species were adjusted to produce plants of appropriate size for the postemergence test. All plant species were grown using normal greenhouse practices. Crop and weed species include arrowleaf sida (Sida rhombifolia), barnyardgrass (Echinochloa crus-galli), cocklebur (Xanthium strumarium), common ragweed (Ambrosia elatior), corn (Zea mays), cotton (Gossypium hirsutum), eastern black nightshade (Solanum ptycanthum), fall panicum (Panicum dichotomiflorum), field bindweed (Convolvulus arvensis), giant foxtail (Setaria faberii), hairy beggarticks (Bidens pilosa), ivyleaf morningglory (Ipomoea hederacea), johnsongrass (Sorghum halepense), ladysthumb smartweed (Polygonum persicaria), lambsquarters (Chenopodium album), large crabgrass (Digitaria sanguinalis), purple nutsedge (Cyperus rotundus), redroot pigweed (Amaranthus retroflexus), soybean (Glycine max), surinam grass (Brachiaria decumbens), velvetleaf (Abutilon theophrasti) and wild poinsettia (Euphorbia heterophylla).
(§7) Treated plants and untreated controls were maintained in a greenhouse for approximately 14, to 21 days, after which all treated plants were compared to untreated controls and visually evaluated. Plant response ratings, summarized in Table C, were based upon a 0 to 100 scale where 0 was no effect and 100 was complete control. A dash response (−) means no test result.

arrowleaf sida = experiment: Test C postemergence arrowleaf sida; format: in vivo, Sida rhombifolia; settings: 0 to 100 scale, 0 no effect, 100 complete control
Procedure: as §5, §6, §7

surinam grass [4] = experiment: Test C postemergence surinam grass; format: in vivo, Brachiaria decumbens; settings: 0 to 100 scale, 0 no effect, 100 complete control
Procedure: as §5, §6, §7

ladysthumb smartweed = experiment: Test C postemergence ladysthumb smartweed; format: in vivo, Polygonum persicaria; settings: 0 to 100 scale, 0 no effect, 100 complete control
In short: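 Foliar postemergence treatment of greenhouse plants grown in 60:40 sandy loam:potting mix; compounds delivered in non-phytotoxic solvent with surfactant. Evaluation is visual, 0–100, after ~14–21 d.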

[5] = Rate 16 g/ha, 0 no injury, 100 complete control
[6] = Rate 32 g/ha, 0 no injury, 100 complete control
[7] = Rate 64 g/ha, 0 no injury, 100 complete control
[8] = Rate 125 g/ha, 0 no injury, 100 complete control
[9] = Rate 250 g/ha, 0 to 100 scale (0 no effect, 100 complete control)
[10] = Rate 62 g/ha, 0 to 100 scale, 0 no effect, 100 complete control
[11] = Rate 125 g/ha, 0 to 100 scale (0 no effect, 100 complete control)

## CC(C)N(C(=O)n1oc(=O)n(C2CC2)c1=O)c1ccc(Cl)cc1 [Compound 241]
Surinam grass [1]; [5]
  Plant response rating, Surinam grass: 0
Surinam grass [1]; [6]
  Plant response rating, Surinam grass: 0
Surinam grass [1]; [7]
  Surinam grass plant response rating: 60
Surinam grass [1]; [8]
  Surinam grass plant response rating: 100
Surinam grass [1]; Rate 250 g/ha
  Plant response rating, Surinam grass: 100
goosegrass; [5]
  Plant response rating, Goosegrass: 0
goosegrass; [6]
  Plant response rating, Goosegrass: 100
goosegrass; [7]
  Plant response rating, Goosegrass: 100
goosegrass; [8]
  Plant response rating, Goosegrass: 100
goosegrass; Rate 250 g/ha
  Plant response rating, Goosegrass: 100
itchgrass; [5]
  Plant response rating, Itchgrass: 0
itchgrass; [6]
  Plant response rating, Itchgrass: 0
itchgrass; [7]
  Plant response rating, Itchgrass: 0
itchgrass; [8]
  Plant response rating, Itchgrass: 100
itchgrass; Rate 250 g/ha
  Plant response rating, Itchgrass: 100

## CC(C)N(C(=O)n1oc(=O)n(C2CCC2)c1=O)c1ccccc1 [Compound 348]
Surinam grass [1]; [5]
  Plant response rating, Surinam grass: 0
Surinam grass [1]; [6]
  Plant response rating, Surinam grass: 0
Surinam grass [1]; [7]
  Surinam grass plant response rating: 20
Surinam grass [1]; [8]
  Surinam grass plant response rating: 80
Surinam grass [1]; Rate 250 g/ha
  Plant response rating, Surinam grass: 100
goosegrass; [5]
  Plant response rating, Goosegrass: 50
goosegrass; [6]
  Plant response rating, Goosegrass: 90
goosegrass; [7]
  Plant response rating, Goosegrass: 100
goosegrass; [8]
  Plant response rating, Goosegrass: 100
goosegrass; Rate 250 g/ha
  Plant response rating, Goosegrass: 100
itchgrass; [5]
  Plant response rating, Itchgrass: 0
itchgrass; [6]
  Plant response rating, Itchgrass: 0
itchgrass; [7]
  Plant response rating, Itchgrass: 0
itchgrass; [8]
  Plant response rating, Itchgrass: 0
itchgrass; Rate 250 g/ha
  Plant response rating, Itchgrass: 100

## CCn1c(=O)on(C(=O)N(c2ccc(Cl)cc2)C(C)C)c1=O [Compound 108]
Wild buckwheat; Rate 62 g/ha, 0 to 100 scale
  Plant response rating, Wild buckwheat: 0
Wild buckwheat; Rate 125 g/ha, 0 to 100 scale
  Plant response rating, Wild buckwheat: 20
Wild buckwheat; [9]
  Plant response rating, Wild buckwheat: 10
Redroot pigweed [2]; Rate 62 g/ha, 0 to 100 scale
  Plant response rating, Redroot pigweed: 5
Redroot pigweed [2]; Rate 125 g/ha, 0 to 100 scale
  Plant response rating, Redroot pigweed: 20
Redroot pigweed [2]; [9]
  Plant response rating, Redroot pigweed: 30
Downy brome; Rate 62 g/ha
  Plant response rating, Downy brome: 0
Downy brome; Rate 125 g/ha
  Plant response rating, Downy brome: 0
Downy brome; [9]
  Plant response rating, Downy brortie: 0
chickweed; [10]
  Plant response rating, Chickweed: 30
chickweed; [11]
  Plant response rating, Chickweed: 40
chickweed; Rate 250 g/ha, 0 to 100 scale
  Plant response rating, Chickweed: 30
Annual bluegrass; [10]
  Plant response rating, Annual bluegras: 20
Annual bluegrass; [11]
  Plant response rating, Annual bluegras: 60
Annual bluegrass; Rate 250 g/ha, 0 to 100 scale
  Plant response rating, Annual bluegras: 60
blackgrass; Rate 62 g/ha, 0 to 100 scale
  Plant response rating, Blackgrass: 5
blackgrass; Rate 125 g/ha, 0 to 100 scale
  Plant response rating, Blackgrass: 5
blackgrass; [9]
  Plant response rating, Blackgrass: 10
lambsquarters; Rate 62 g/ha, 0 to 100 scale
  Plant response rating, Lambsquarters: 10
lambsquarters; Rate 125 g/ha, 0 to 100 scale
  Plant response rating, Lambsquarters: 20
lambsquarters; [9]
  Plant response rating, Lambsquarters: 20
Littleseed canarygrass; Rate 62 g/ha, 0 to 100 scale
  Plant response rating, LS canarygrass: 0
Littleseed canarygrass; Rate 125 g/ha, 0 to 100 scale
  Plant response rating, LS canarygrass: 20
Littleseed canarygrass; [9]
  Plant response rating, LS canarygrass: 70
windgrass
  Plant response rating, Windgrass: 80
Jointed goatgrass; Rate 62 g/ha, 0 to 100 scale
  Plant response rating, Jointed goatgra: 10
Jointed goatgrass; Rate 125 g/ha, 0 to 100 scale
  Plant response rating, Jointed goatgra: 10
Jointed goatgrass; [9]
  Plant response rating, Jointed goatgra: 10

## CC(C)N(C(=O)n1oc(=O)n(C2CCC2)c1=O)c1ccc(Cl)cc1 [Compound 349]
Surinam grass [1]; [5]
  Plant response rating, Surinam grass: 0
Surinam grass [1]; [6]
  Plant response rating, Surinam grass: 0
Surinam grass [1]; [7]
  Surinam grass plant response rating: 0
Surinam grass [1]; [8]
  Surinam grass plant response rating: 10
Surinam grass [1]; Rate 250 g/ha
  Plant response rating, Surinam grass: 60
goosegrass; [5]
  Plant response rating, Goosegrass: 0
goosegrass; [6]
  Plant response rating, Goosegrass: 20
goosegrass; [7]
  Plant response rating, Goosegrass: 100
goosegrass; [8]
  Plant response rating, Goosegrass: 100
goosegrass; Rate 250 g/ha
  Plant response rating, Goosegrass: 90
itchgrass; [5]
  Plant response rating, Itchgrass: 0
itchgrass; [6]
  Plant response rating, Itchgrass: 0
itchgrass; [7]
  Plant response rating, Itchgrass: 0
itchgrass; [8]
  Plant response rating, Itchgrass: 0
itchgrass; Rate 250 g/ha
  Plant response rating, Itchgrass: 0

## CC(C)N(C(=O)n1oc(=O)n(Cc2cccs2)c1=O)c1ccccc1 [Compound 103]
Redroot pigweed [3]; Rate 140 g/ha
  Plant response rating, Redroot pigweed: 0
Redroot pigweed [3]; Rate 280 g/ha
  Plant response rating, Redroot pigweed: 60
Redroot pigweed [3]; Rate 560 g/ha
  Plant response rating, Redroot pigweed: 70
Redroot pigweed [3]; Rate 1120 g/ha
  Plant response rating, Redroot pigweed: 85
Arrowleaf sida; Rate 140 g/ha
  Plant response rating Arrowleaf sida: 0
Arrowleaf sida; Rate 280 g/ha
  Plant response rating Arrowleaf sida: 0
Arrowleaf sida; Rate 560 g/ha
  Plant response rating Arrowleaf sida: 0
Surinam grass [4]; Rate 140 g/ha
  Plant response rating, Surinam grass: 0
Surinam grass [4]; Rate 280 g/ha
  Plant response rating, Surinam grass: 0
Surinam grass [4]; Rate 560 g/ha
  Plant response rating, Surinam grass: 0
Surinam grass [4]; Rate 1120 g/ha
  Plant response rating, Surinam grass: 5
Ladysthumb smartweed; Rate 140 g/ha
  Plant response rating Ladysthumb: 0
Ladysthumb smartweed; Rate 280 g/ha
  Plant response rating Ladysthumb: 0
Ladysthumb smartweed; Rate 560 g/ha
  Plant response rating Ladysthumb: 10
Ladysthumb smartweed; Rate 1120 g/ha
  Plant response rating Ladysthumb: 10

## CC(C)Cn1c(=O)on(C(=O)N(c2ccc(F)cc2)C(C)C)c1=O [Compound 169]
Surinam grass [1]; [7]
  Surinam grass plant response rating: 65
goosegrass; [7]
  Plant response rating, Goosegrass: 100
itchgrass; [7]
  Plant response rating, Itchgrass: 0

## CC(C)N(C(=O)n1oc(=O)n(Cc2cccs2)c1=O)c1ccc(F)cc1 [Compound 80]
Redroot pigweed [3]; Rate 280 g/ha
  Plant response rating, Redroot pigweed: 0
Redroot pigweed [3]; Rate 560 g/ha
  Plant response rating, Redroot pigweed: 50
Redroot pigweed [3]; Rate 1120 g/ha
  Plant response rating, Redroot pigweed: 80
Arrowleaf sida; Rate 140 g/ha
  Plant response rating Arrowleaf sida: 0
Arrowleaf sida; Rate 280 g/ha
  Plant response rating Arrowleaf sida: 5
Arrowleaf sida; Rate 1120 g/ha
  Plant response rating Arrowleaf sida: 30
Surinam grass [4]; Rate 140 g/ha
  Plant response rating, Surinam grass: 0
Surinam grass [4]; Rate 280 g/ha
  Plant response rating, Surinam grass: 0
Surinam grass [4]; Rate 560 g/ha
  Plant response rating, Surinam grass: 0
Surinam grass [4]; Rate 1120 g/ha
  Plant response rating, Surinam grass: 10
Ladysthumb smartweed; Rate 140 g/ha
  Plant response rating Ladysthumb: 10
Ladysthumb smartweed; Rate 280 g/ha
  Plant response rating Ladysthumb: 10
Ladysthumb smartweed; Rate 560 g/ha
  Plant response rating Ladysthumb: 70
Ladysthumb smartweed; Rate 1120 g/ha
  Plant response rating Ladysthumb: 70
